Experimental data taken from patent US10683273B2, “Compounds as DNA probes, methods and applications thereof” (JAWAHARLAL NEHRU CENTRE FOR ADVANCED SCIENTIFIC RESEARCH, priority 2015, dated 2020).

Assays:
[1] = test system: MCF-7 cells; assay: Cell viability assay (MTT); assay type: cell-based; conditions: MCF-7, up to 8 μM, about 72 hours
Description: MCF-7 cells (4×10^3 cells/well) are seeded in 96-well plate (flat bottom) and cultured for 12 hours. Following this, cells are treated with […] of probe QCy-DT respectively for about 72 hours and further incubated in a humidified CO2 incubator at about 37° C. 20 μL of MTT (5 mg/mL in PBS) solution is added to each well and incubated for about 4 hours at about 37° C. in the CO2 incubator. DMSO (200 μL) is then added to each well. After about 1 hour, absorbance is taken in ELISA microplate reader at 570 nm wavelength.
Following formula is applied for the calculation of percentage of cell viability (CV): CV=(absorbance of the experimental samples/absorbance of the control sample)×100
The data is normalized with control and plotted with mean and standard error.

[2] = test system: Drew-AT; assay: Binding constant from fluorescence titration; conditions: non-linear single-binding mode curve fitting
Description: (§1) To determine the binding stoichiometry of QCy-DT with Drew-AT, continuous variation method is employed, varying the ligand concentrations to generate the Job plot by fixing the total concentration of [QCy-DT+Drew-AT] at 2 μM. […] The binding constants of [QCy-DT+DNA] complexes are calculated from the fluorescence titration experiments using non-linear (single-binding mode) curve fitting analysis. […] Next, the fluorescence quantum yield of QCy-DT is estimated in the presence of AT- and GC-rich DNA duplexes (Table 3) as follows: […]

[3] = test system: (A-T)20; assay: Binding constant from fluorescence titration
Description: as §1

[4] = test system: (D1)mix; assay: Binding constant from fluorescence titration; conditions: non-linear single-binding mode curve fitting
Description: as §1

[5] = test system: DNA; assay: Stokes shift from absorption and emission spectra, in presence of DNA; assay type: physicochemical; conditions: present disclosure
Description: The UV-vis absorption and emission spectra are recorded on Agilent Technologies Cary series UV-vis-NIR absorbance and Cary eclipse fluorescence spectrophotometers, respectively. Thermal denaturation (UV-melting) studies are carried out on Cary 5000 UV-vis-NIR spectrophotometer equipped with Cary temperature controller in the range of 10° C. to 90° C. with a ramp rate of 1° C./min. The variable temperature/wavelength mode is used. Absorption is monitored at 260 nm with regular 5° C. intervals. Melting temperatures (Tm) of DNA samples are calculated from the first derivatives of the absorption vs. temperature curves (thermal denaturation or melting curves) obtained by monitoring at 260 nm.
The molecular interactions of QCy-DT is studied by evaluating the absorption and emission properties in Tris-buffer (100 mM, pH=7.4) under ambient conditions. […] The NIR-fluorescence of QCy-DT arises due to extended through the Cy7 backbone and ICT process. The weak or non-fluorescent behavior of dye molecules in buffer solution is mainly attributed to the intramolecular twisting processes, which cause quenching of the fluorescence of cyanine dyes, solvation with water molecules also aids the fluorescence quenching by means of deactivation of […]. […]

[6] = test system: RNA; assay: Fluorescence response with RNA; assay type: binding; conditions: QCy-DT 2 μM, RNA 4 μM, Tris-HCl
Description: All the chemicals, reagents, single-stranded oligos (dA20, dT20, dG20, dC20), self-complementary oligos {d(ATAT)5, (D1)mix, Drew-AT, Calf-Thymus DNA (CT-DNA), (DM1, DM2, DM3, DM4, DM5, DM6 and DM7)}, RNA, were purchased from Sigma-Aldrich. ^1H and ^13C NMR spectra were recorded on a Bruker AV-400 MHz spectrometer with chemical shifts reported as parts per million (ppm) (in DMSO-d6, tetramethylsilane as an internal standard) at 20° C. UV-vis absorption and emission spectra were measured in quartz cuvettes of 1 cm path length. High resolution mass spectra (HRMS) were obtained on Agilent Technologies 6538 UHD Accurate-Mass Q-TOF LC/MS spectrometer. All biophysical studies (UV-vis, fluorescence and Cirular dichroism) are carried out at the concentration 0-5 μM of probe, volume=500 μL, temperature=25° C. and time of incubation=2 minutes. […]
The UV-vis absorption and emission spectra are recorded on Agilent Technologies Cary series UV-vis-NIR absorbance and Cary eclipse fluorescence spectrophotometers, respectively. […] Absorption is monitored at 260 nm with regular 5° C. intervals. Melting temperatures (Tm) of DNA samples are calculated from the first derivatives of the absorption vs. temperature curves (thermal denaturation or melting curves) obtained by monitoring at 260 nm. […]

- binding affinity Ka [2]: 1.5e+06 M⁻¹
- binding affinity Ka ([3]; non-linear single-binding mode curve fitting): 2.9e+06 M⁻¹
- binding affinity for (A-T)20 higher than for Drew-AT ([3]; ratio of Ka): 2 fold
- binding affinity Ka [4]: 430000 M⁻¹
- Stokes shift in presence of DNA [5]: 86 nm
SMILES: C[n+]1c(/C=C/c2ccc(O)c(/C=C/c3sc4ccccc4[n+]3C)c2)sc2ccccc21 [QCy-DT, quinone cyanine-dithiazole]
- cell viability [1]: > 76%
- fluorescence response [6]: very weak response
